Experimental data: US8426420B2, “Heterocyclic pyrazole-carboxamidesas P2Y12 antagonists” (Sanofi, priority 2007, dated 2013)

Experiments:
human P2Y12 receptor = human P2Y12 receptor (Homo sapiens, UniProt Q9H244); test: Human P2Y12 recombinant cell membrane binding assay with 33P 2MeS-ADP; conditions: competition against 33P 2MeS-ADP, membranes of CHO cells with recombinant human P2Y12 receptor
How it was run: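 CHO membranes expressing human P2Y12 (20 μg/ml stock) preincubated 15 min at RT with compound in HEPES pH 7.4 buffer, then 33P 2MeS-ADP (1.61 nM working solution) added for 20 min at RT. Bound label filtered and counted; four-point, five-fold series from 10 μM final, triplicate, four-parameter fit.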

[1] = tested on: human platelet rich plasma; test: Inhibition of human platelet aggregation, "Born"-method using single cuvettes; format: cell-based; conditions: 0.1 h, ADP-induced aggregation, 6 minutes
Method: Inhibition of Human Platelet Aggregation
Alternatively to a binding assay which measures a compound's ability to bind to the P2Y12 receptor, the effect on cellular function was also determined. This ability of the compound was evaluated in two platelet aggregation assays: in 96-well plates and with the “Born”-method using single cuvettes.
Whole blood was collected from healthy volunteers using 20 ml syringes containing 2 ml of buffered Citrate. The anticoagulated whole blood was transferred into 15 ml polypropylene conical tubes (10 ml per tube). The tubes were centrifuged for 15 minutes at 340×g at RT without using the centrifuge brake. This procedure leads to a pellet of cellular components and a supernatant of platelet rich plasma (PRP). The PRP layer was collected from each tube and pooled for each donor. To avoid carry over of cellular components following centrifugation, approximately 5 ml of PRP was left in the tube. The platelet concentration was determined using a Coulter Counter.
The 15 ml tubes containing the pellet of cellular components were centrifuged again for 10 minutes at 1940×g. This pelleted out most particulate blood constituents remaining, leaving a layer of Platelet Poor Plasma (PPP). The PPP was collected for each donor. The PRP layer, previously set aside, was diluted with PPP to a final concentration of approximately 3×E8 platelets/ml with the PPP.
The human platelet aggregation assay is performed in single use cuvettes using the platelet aggregation profiler (PAP-4 or -8, Bio/Data corporation).
In the assay cuvette 4 μl of test compound at 100× final concentration in DMSO is mixed with 392 μl fresh PRP and incubated for 2 minutes at 37° C. with 1.200 rpm stirring. Following that incubation period, 4 μl of 250 μM ADP is added to the reaction mix. This addition of ADP is sufficient to induce aggregation in the absence of an inhibitor. After that aggregation is measured over 6 minutes at 37° C. with 1.200 rpm stirring. Results of the assay are expressed as % inhibition, and are calculated using maximum aggregation (Tmax) or area under curve (AUC) of the absorbance over 6 minutes.
The IC50 data of the above described platelet aggregation assay using human platelet rich plasma for exemplary compounds of the present invention are shown in table 3.

[2] = tested on: human platelet rich plasma; test: Inhibition of human platelet aggregation, 96-well assay; format: cell-based; conditions: Homo sapiens, Platelet, 20 min
How it was run: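 ADP-induced aggregation read as 650 nm absorbance every minute for 20 min at 37 °C, with shaking between reads. PRP (~3×E8 platelets/ml, diluted with PPP, ACD-A blood from healthy volunteers) was exposed to compound for 5 min before adding a 40 μM ADP stock (15 μl into 150 μl).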

Chain of human P2Y12 receptor (Q9H244 whole entry): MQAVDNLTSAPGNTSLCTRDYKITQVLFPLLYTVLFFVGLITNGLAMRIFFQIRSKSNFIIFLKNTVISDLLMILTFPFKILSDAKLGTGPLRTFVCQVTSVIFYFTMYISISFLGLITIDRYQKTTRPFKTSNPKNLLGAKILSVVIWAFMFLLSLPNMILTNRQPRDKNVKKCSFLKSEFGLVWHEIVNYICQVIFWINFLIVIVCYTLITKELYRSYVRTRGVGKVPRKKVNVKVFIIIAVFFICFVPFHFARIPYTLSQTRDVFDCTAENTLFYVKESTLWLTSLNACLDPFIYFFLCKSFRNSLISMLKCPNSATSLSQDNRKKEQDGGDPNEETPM

Structure (SMILES)	IC50 (human P2Y12 receptor) [nM]	IC50 [1] [nM]	IC50 [2] [nM]
CCOC(=O)N1CCN(C(=O)[C@H](CCC(=O)O)NC(=O)c2cc(OCC(=O)N3CCC[C@H]3C(=O)NCC(F)(F)F)n(-c3ccccc3)n2)CC1 [Example 2, 4-{(S)-4-Carboxy-2-[(5-{2-oxo-2-[(S)-2-(2,2,2-trifluoroethyl-carbamoyl)pyrrolidin-1-yl]-ethoxy}-1-phenyl-1H-pyrazole-3-carbonyl)-amino]-butyryl}-piperazine-1-carboxylic acid ethyl ester]	120	11	
CCOC(=O)N1CCN(C(=O)[C@H](CCC(=O)O)NC(=O)c2cc(OCC(=O)N3CCC[C@H]3C(=O)NC(C)C)n(-c3ccccc3)n2)CC1 [Example 10, 4-{(S)-4-Carboxy-2-[(5-{2-[(S)-2-isopropylcarbamoyl-pyrrolidin-1-yl]-2-oxo-ethoxy}-1-phenyl-1H-pyrazole-3-carbonyl)-amino]-butyryl}-piperazine-1-carboxylic acid ethyl ester]	146	340	
CCCCNC(=O)[C@@H]1CCCN1C(=O)COc1cc(C(=O)N[C@@H](CCC(=O)O)C(=O)N2CCN(C(=O)OCC)CC2)nn1-c1ccccc1 [Example 11, 4-{(S)-4-Carboxy-2-[(5-{2-[(S)-2-butylcarbamoyl-pyrrolidin-1-yl]-2-oxo-ethoxy}-1-phenyl-1H-pyrazole-3-carbonyl)-amino]-butyryl}-piperazine-1-carboxylic acid ethyl ester]		120	30
CCOC(=O)N1CCN(C(=O)[C@H](CCC(=O)O)NC(=O)c2cc(OCC(=O)N3CCC[C@H]3C(=O)NC3CCCC3)n(-c3ccccc3)n2)CC1 [Example 13, 4-{(S)-4-Carboxy-2-[(5-{2-[(S)-2-cyclopentylcarbamoyl-pyrrolidin-1-yl]-2-oxo-ethoxy}-1-phenyl-1H-pyrazole-3-carbonyl)-amino]-butyryl}-piperazine-1-carboxylic acid ethyl ester]		38	10
CCOC(=O)N1CCN(C(=O)[C@H](CCC(=O)O)NC(=O)c2cc(OCC(=O)N3CCC[C@H]3C(=O)NCC3CC3)n(-c3ccccc3)n2)CC1 [Example 16, 4-{(S)-4-Carboxy-2-[(5-{2-[(S)-2-(cyclopropylmethyl-carbamoyl)-pyrrolidin-1-yl]-2-oxo-ethoxy}-1-phenyl-1H-pyrazole-3-carbonyl)-amino]-butyryl}-piperazine-1-carboxylic acid ethyl ester]		46	
CCOC(=O)N1CCN(C(=O)[C@H](CCC(=O)O)NC(=O)c2cc(O[C@H](C)C(=O)N3CCC[C@H]3C(=O)NCC3CC3)n(-c3ccccc3)n2)CC1 [Example 63, 4-[(S)-4-Carboxy-2-({5-[(R)-2-((S)-2-cyclopropylmethylcarbamoyl-pyrrolidin-1-yl)-1-methyl-2-oxo-ethoxy]-1-phenyl-1H-pyrazole-3-carbonyl}-amino)-butyryl]-piperazine-1-carboxylic acid ethyl ester]	41	20	
CCOC(=O)N1CCN(C(=O)[C@H](CCC(=O)O)NC(=O)c2cc(O[C@@H](C)C(=O)N3CCC[C@H]3C(=O)NC3CCC3)n(-c3ccccc3)n2)CC1 [Example 67, 4-[(S)-4-Carboxy-2-({5-[(S)-2-((S)-2-cyclobutylcarbamoyl-pyrrolidin-1-yl)-1-methyl-2-oxo-ethoxy]-1-phenyl-1H-pyrazole-3-carbonyl}-amino)-butyryl]-piperazine-1-carboxylic acid ethyl ester]		950	110
CCOC(=O)N1CCN(C(=O)[C@H](CC(O)CO)NC(=O)c2cc(OCC(=O)N3CCC[C@H]3C(=O)NC3CCC3)n(-c3ccccc3)n2)CC1 (stereo partly drawn) [Example 117, 4-[(S)-2-({5-[2-((S)-2-Cyclobutylcarbamoyl-pyrrolidin-1-yl)-2-oxo-ethoxy]-1-phenyl-1H-pyrazole-3-carbonyl}-amino)-4,5-dihydroxy-pentanoyl]-piperazine-1-carboxylic acid ethyl ester]		220	
CCCCOC(=O)N1CCN(C(=O)[C@H](CCC(=O)O)NC(=O)c2cc(OCC(=O)N3CCC[C@H]3C(=O)NC3CCC3)n(-c3ccccc3)n2)CC1 [Example 119, 4-[(S)-4-Carboxy-2-({5-[2-((S)-2-cyclobutylcarbamoyl-pyrrolidin-1-yl)-2-oxo-ethoxy]-1-phenyl-1H-pyrazole-3-carbonyl}-amino)-butyryl]-piperazine-1-carboxylic acid butyl ester]		13	20
CCCCOC(=O)N1CCN(C(=O)[C@H](CCc2nn[nH]n2)NC(=O)c2cc(OCC(=O)N3CCC[C@H]3C(=O)NC3CCC3)n(-c3ccccc3)n2)CC1 [Example 126, 4-[(S)-2-({5-[2-((S)-2-Cyclobutylcarbamoyl-pyrrolidin-1-yl)-2-oxo-ethoxy]-1-phenyl-1H-pyrazole-3-carbonyl}-amino)-4-(2H-tetrazol-5-yl)-butyryl]-piperazine-1-carboxylic acid butyl ester]		79	50
CCOC(=O)N1CCN(C(=O)[C@H](CCC(=O)O)NC(=O)c2cc(OCC(=O)N3CCC[C@H]3c3cc(C)no3)n(-c3ccccc3)n2)CC1 [Example 173, 4-{(S)-4-Carboxy-2-[(5-{2-[(S)-2-(3-methyl-isoxazol-5-yl)-pyrrolidin-1-yl]-2-oxo-ethoxy}-1-phenyl-1H-pyrazole-3-carbonyl)-amino]-butyryl}-piperazine-1-carboxylic acid ethyl ester]		940	860
CCOC(=O)N1CCN(C(=O)[C@H](CCC(=O)O)NC(=O)c2cc(OCC(=O)N3CCC[C@H]3c3nc(C)no3)n(-c3ccccc3)n2)CC1 [Example 174, 4-{(S)-4-Carboxy-2-[(5-{2-[(S)-2-(3-methyl-[1,2,4]oxadiazol-5-yl)-pyrrolidin-1-yl]-2-oxo-ethoxy}-1-phenyl-1H-pyrazole-3-carbonyl)-amino]-butyryl}-piperazine-1-carboxylic acid ethyl ester]		2220	760
CCOC(=O)N1CCN(C(=O)CNC(=O)c2cc(OCC(=O)N3CCC[C@H]3C(=O)NC3CCC3)n(-c3ccccc3)n2)CC1 [Example 181, 4-[2-({5-[2-((S)-2-Cyclobutylcarbamoyl-pyrrolidin-1-yl)-2-oxo-ethoxy]-1-phenyl-1H-pyrazole-3-carbonyl}-amino)-acetyl]-piperazine-1-carboxylic acid ethyl ester]		100	90
CCOC(=O)N1CCN(C(=O)[C@H](C)NC(=O)c2cc(OCC(=O)N3CCC[C@H]3C(=O)NC3CCC3)n(-c3ccccc3)n2)CC1 [Example 185, 4-[(S)-2-({5-[2-((S)-2-Cyclobutylcarbamoyl-pyrrolidin-1-yl)-2-oxo-ethoxy]-1-phenyl-1H-pyrazole-3-carbonyl}-amino)-propionyl]-piperazine-1-carboxylic acid ethyl ester]		90	
O=C(NCC(=O)N1CCN(C(=O)OCCC(F)(F)F)CC1)c1cc(OCC(=O)N2CCC[C@H]2C(=O)NC2CCC2)n(-c2ccccc2)n1 [Example 256, 4-[2-({5-[2-((S)-2-Cyclobutylcarbamoyl-pyrrolidin-1-yl)-2-oxo-ethoxy]-1-phenyl-1H-pyrazole-3-carbonyl}-amino)-acetyl]-piperazine-1-carboxylic acid 3,3,3-trifluoro-propyl ester]		190	130
CCCCOC(=O)N1CCN(C(=O)[C@H](CF)NC(=O)c2cc(OCC(=O)N3CCC[C@H]3C(=O)NC3CCC3)n(-c3ccccc3)n2)CC1 [Example 262, 4-[(R)-2-({5-[2-((S)-2-Cyclobutylcarbamoyl-pyrrolidin-1-yl)-2-oxo-ethoxy]-1-phenyl-1H-pyrazole-3-carbonyl}-amino)-3-fluoro-propionyl]-piperazine-1-carboxylic acid butyl ester]		40	30
CCCOC(=O)N1CCN(C(=O)[C@H](CC(F)(F)F)NC(=O)c2cc(OCC(=O)N3CCC[C@H]3C(=O)NC3CCC3)n(-c3ccccc3)n2)CC1 [Example 273, 4-[(S)-2-({5-[2-((S)-2-Cyclobutylcarbamoyl-pyrrolidin-1-yl)-2-oxo-ethoxy]-1-phenyl-1H-pyrazole-3-carbonyl}-amino)-4,4,4-trifluoro-butyryl]-piperazine-1-carboxylic acid propyl ester]	160		380
